{
  "source": "patent US20050058695A1",
  "about": "“Norethindrone sustained release formulations and methods associated therewith” (Watson Pharmaccuticals, Inc., priority 2002, published 2005)",
  "key": {"[1]": {"conditions": "cited from earlier work"}, "[2]": {"assay": "in situ conversion of norethindrone acetate to norethindrone in the transdermal formulation", "assay_type": "physicochemical"}},
  "data": [
    {"smiles": "C#C[C@]1(OC(C)=O)CC[C@H]2[C@@H]3CCC4=CC(=O)CC[C@@H]4[C@H]3CC[C@@]21C", "note": "[NEA, norethindrone acetate]", "values": [
      {"measurement": "time at which maximum skin flux for NEA is attained", "setting": "[1]; FIG. 3 of U.S. Pat. No. 5,980,932", "value": "only after the second day of administration"},
      {"measurement": "time at which maximum NEA skin flux is obtained following administration", "setting": "[1]; FIGS. 1 and 2 of U.S. Patent Application Publication No. 2003/0152615, in h", "value": "~48"},
      {"measurement": "conversion to norethindrone in situ in the transdermal formulation", "setting": "[2]", "value": "does not convert to norethindrone in situ"}
    ]}
  ]
}
